Source: patent publication US20190137482A1, “HIGH THROUGHPUT SCREENING OF AGENTS ON DOPAMINERGIC NEURONS” (Cell Cure Neurosciences Ltd., priority 2013, published 2019)

Legend:
dopaminergic neurons = test: DansylD1 fluorescence in dopaminergic neurons after toxin exposure; assay type: cell-based, human; conditions: for DansylD1 fluorescence levels by micro-plate reader: 2 week differentiated live mature DA neurons, different toxin concentrations, 1 day, DansylD1 added again, FIG. 11
Procedure: For Binding and uptake of the fluorescent ligand, 500-1000 nM of DansylD1™ (Five Photon Biochemicals™, Lot#81672) was administrated to the seeded cells after 2 weeks of differentiation on the coverslips or on 12/24 wells plastic plates for 10-15 minutes in 37° C. DansylD1 functions as the dopamine neurotransmitter in binding to the D2 dopamine receptor on Dopaminergic and GABAergic neurons and uptake through the dopamine transporter (DAT) by dopaminergic neurons. 50 nM of the D2 dopamine receptor antagonist—Sulpiride (sigma S112, Lot#108H4745) or 5 nM of the dopamine transporter (DAT) blocker—GBR (Sigma G9659, Lot#086K4104), were added for 10 minutes to the seeded cells in order to reduce the binding to non-dopaminergic neurons or to block the specific DansylD1 uptake respectively. Uptake levels of the dansylD1 fluorescent ligand molecule were detected and analyzed by fluorescence microscope and a fluorescence micro-plate reader (Bioteck, 333/515 nm). Acquisition and analysis was performed using Magelan software and Microsoft Excel.
Dopaminergic neurons were fluorescently labeled with Dansyl D1. Increasing levels of 6-OH dopamine (50 nM and 100 nM) were added to the dopaminergic neurons and following 1 day of culture, the neurons were contacted again with Dansyl D1. The cells were rinsed and then the amount of fluorescence was analyzed.
(§1) An additional experiment compared the effect of 100 nM 6-OH dopamine with 200 nM 6-OH dopamine. As illustrated in FIGS. 10A-10B, after addition of 200 nM 6-OH-dopamine to mature DA neurons the fluorescence levels of dansylD1 was decreased (green) and also the percentage of cells expressing TH (DA neuron marker) declined to 1-2% (FIGS. 10C and D).
(§2) Dansyl D1 was added to 2 week differentiated live mature DA neurons and the fluorescence levels quantified by fluorescence micro-plate reader. Later the cells were washed and different 6-OH-dopamine concentrations were added. After a day, dansylD1 was added again and the fluorescent levels measured once again.

mature DA neurons = test: TH expression in mature DA neurons after toxin exposure; assay type: cell-based, human
Procedure: For staining, cells on the coverslips were blocked in 5% normal goat/donkey serum (NGS) for 1 hour at room temperature. The anti TH antibody was diluted 1:100 or 1:1000 in 1% normal donkey/goat serum (NGS) and applied for 1 hour at room temperature. The antibodies that was employed were rabbit anti-human TH polyclonal antibody or mouse anti-human TH monoclonal antibody, Cat No. p40101, purchased from Pel-freez, or Cat No. T1299 purchased from Sigma and rabbit anti hu Nurr1 ab AB5778 (Millipore 10 ug/ml) or mouse igG anti NurrI (millipore, 1:200 or 1:1000), Rabbit Anti DAT AB5802 (Millipore, 1:500-1:1000). Following three washes in PBS, swine-anti rabbit FITC or goat anti mouse Cy-3-antibody diluted 1:50 or 1:500 in 1% normal goat serum (NGS) was applied for 1 hour at room temperature. Cells were washed in PBS, fixed with 4% PFA and mounted in the presence of the nuclear counterstain DAPI for immunofluoresecent microscopic examination.
as §1

PC12 cells = test: DansylD1 uptake calibration in PC-12 cells (fluorescence microscope); assay type: cell-based; conditions: 500 nM DansylD1, dopamine as competitive inhibitor, GBR as dopamine transporter blocker, FIGS. 3A-3D
Procedure: (§3) For Binding and uptake of the fluorescent ligand, 500-1000 nM of DansylD1™ (Five Photon Biochemicals™, Lot#81672) was administrated to the seeded cells after 2 weeks of differentiation on the coverslips or on 12/24 wells plastic plates for 10-15 minutes in 37° C. […] Uptake levels of the dansylD1 fluorescent ligand molecule were detected and analyzed by fluorescence microscope and a fluorescence micro-plate reader (Bioteck, 333/515 nm). Acquisition and analysis was performed using Magelan software and Microsoft Excel.

[1] = tested on: hESC-derived dopaminergic neurons; test: DansylD1 labeling and uptake in hESC-derived dopaminergic neurons; assay type: cell-based, human; conditions: for DansylD1 fluorescence level: hESC-derived dopaminergic neurons after 26 days of differentiation, agent present in the medium, FIGS. 6A-6D
Source text: In order to direct the differentiation of hESCs into DA neurons, the cells were first directed to become neural progenitors within free-floating spheres (2 weeks) in the presence of the dual SMAD inhibitors (LDN193189+SB431542), FGF8, Purmorphamine and CHIR. They were further directed to differentiate into DA progenitors (7 days) as adherent cultures on laminin/fibronectin in the presence of FGF8, Purmorphamine and CHIR. Finally, they were differentiated into mature DA neurons (7 days) in the presence of the following factors (BDNF, NT4, AA, db-cAMP, TGFbeta3, GDNF and DAPT). The relevant factors/mitogens were replaced every 2-3 days.
as §3
The neuronal culture was incubated in the presence of the D2 antagonist Sulpiride.

DA neurons = test: Protection of DA neurons from the toxin 6-OH dopamine; assay type: cell-based, human; conditions: cells over-expressing GDNF; FIG. 12
Procedure: as §2

[2] = 200 nM toxin, mature DA neurons

Molecule: NCCc1cc(O)c(O)cc1O [6-OH-dopamine]
- amount of Dansyl D1 fluorescence in dopaminergic cells (dopaminergic neurons; 50 nM and 100 nM toxin, 1 day of culture, relabeled with Dansyl D1, FIGS. 10A-10C): reduced
- Dansyl-D1 uptake (dopaminergic neurons; 100 nM toxin): significant decrease
- fluorescence levels of dansylD1 (dopaminergic neurons; [2]): decreased
- DansylD1 fluorescence levels by micro-plate reader (dopaminergic neurons): decreased by half
- DansylD1 fluorescence levels by micro-plate reader (dopaminergic neurons; listed as 6-OH dopamine): reduced in correlation with the amount of toxin
- TH positive cells (mature DA neurons; 100 nM toxin): only minor reduction
- percentage of cells expressing TH (mature DA neurons; [2]): 1-2%

Molecule: Cl.Cl.Fc1ccc(C(OCCN2CCN(CCCc3ccccc3)CC2)c2ccc(F)cc2)cc1 [GBR]
- amount of DansylD1 fluorescence in the cells (PC12 cells): decreased the amount of fluorescence
- DansylD1 fluorescence level [1]: caused the fluorescence level to decline

Molecule: NCCc1ccc(O)c(O)c1 [dopamine]
- amount of DansylD1 fluorescence in the cells (PC12 cells): decreased the amount of fluorescence
- DansylD1 fluorescence level [1]: caused the fluorescence level to decline

Molecule: CCN1CCCC1CNC(=O)c1cc(S(N)(=O)=O)ccc1OC (stereo not shown) [sulpiride]
- DansylD1 signal from the cells surface ([1]; neuronal culture incubated with the D2 antagonist, fluorescent vesicles appear, FIGS. 8A-8B): less signal from the cells surface

B1: GDNF: neurotrophic factor over-expressed by cells that protected DA neurons from the toxin (protein, UniProt P39905 78-211, looked up)
Glial cell line-derived …: SPDKQMAVLPRRERNRQAAAANPENSRGKGRRGQRGKNRGCVLTAIHLNVTDLGLGYETKEELIFRYCSGSCDAAETTYDKILKNLSRNRRLVSDKVGQACCRPIAFDDDLSFLDDNLVYHILRKHSAKRCGCI
- protection of neurons from the toxin 6-OH dopamine (DA neurons): protected
